Paper PMC7393058, “Design, Synthesis, Molecular Modeling Study and Biological Evaluation of New N'-Arylidene-pyrido [2,3-d]pyrimidine-5-carbohydrazide Derivatives as Anti-HIV-1 Agents” (Iranian Journal of Pharmaceutical Research : IJPR, 2019)
Like-named read-outs stand apart in the source and are kept apart here.

Assays:
[1] = system: single cycle replicable HIV NL4-3; test: single-round replication assay, inhibition of p24 expression (capture ELISA) in Hela cells; type: cell-based, HIV-1; conditions: for SI=CC50/EC50: selectivity index, CC50/EC50 ratio
Protocol: (§1) The evaluation of inhibitory effect of synthesized compounds was performed by single-round replication assay which was evaluated in our laboratory and reported previously ([34]-[40]). Briefly, Hela cells (6 × 10^3 per well of 96-wells plate) were incubated with single cycle replicable HIV NL4-3 virions (200 ng p24) in the presence of various concentrations of compounds which were added concurrently with viral infection. The supernatants were collected 72 h postinfection and evaluated for p24 antigen load by capture ELISA (Biomerieux, France). Percentage inhibition of p24 expression in the treated culture was calculated as inhibition rate of p24 (%). The 50% effective concentration (EC50) was determined for each compound. XTT proliferation method was performed to evaluate the cellular toxicity of compounds. Toxicities of the compounds against the cells were quantified using XTT (sodium 3-[1 (phenyl aminocarbonyl)-3,4-tetrazolium]-bis(4-methoxy-6-nitro)benzene sulfonic acid) reagent, according to the kit instruction (Roche, Germany) ([41], [42]). Concentration which reduces proliferation of 50% of cells (CC50) was calculated subsequent to determination of p24 load. For EC50 and CC50 determinations, the compounds were tested at six concentrations ([…]) in triplicates.
(§2) All new synthesized compounds were evaluated for their activity against single cycle replicable HIV NL4-3 by determining their ability to inhibit p24 expression in Hela cell cultures. The well-known nucleoside RT inhibitor (AZT) was assayed in the same cells for comparative purpose. They all were then subjected to cell based XTT colorimetric assay for cytotoxicity to ensure that the anti-HIV-1 activity of the compounds was not a result of their cytotoxic effects ([43], [44]). The biological results are expressed as EC50, CC50, and SI (selectivity index, given by the CC50/EC50 ratio). […] When comparing the anti-HIV-1 activity of tested compounds, it appeared that the presence of substituents on benzylidene fragment confers better inhibition than the unsubstituted counterparts (compound 5a, EC50 >[…]).

[2] = XTT proliferation (cytotoxicity) assay; type: cell-based, human; conditions: human; XTT, Hela cells
Protocol: as §1, §2

Hela cells = test: XTT proliferation (cytotoxicity) assay; type: cell-based, human
Protocol: as §1, §2

[3] = Human immunodeficiency virus 1, NL43, HeLa, 72 h

Compound	EC50 [1, 3] [µM]	SI=CC50/EC50 [1]	CC50 at 72 h [2] [µM]	melting point	EC50 ([1]; inhibition of p24 expression, Hela cells, 72 h postinfection, triplicates, read-out: EC50) [µM]	CC50 (Hela cells) [µM]
Cn1c(=O)c2c(C(=O)NN=Cc3cccc(F)c3)cc(=O)[nH]c2n(C)c1=O [Compound 5k, N’-(3-fluorobenzylidene)-1,3-dimethyl-2,4,7-trioxo-1,2,3,4,7,8-hexahydropyrido[2,3-d]pyrimidine-5-carbohydrazide]	140	2.7	> 200	287 °C (dec.)		
COc1cccc(C=NNC(=O)c2cc(=O)[nH]c3c2c(=O)n(C)c(=O)n3C)c1 [Compound 5c, N’-(3-methoxybenzylidene)-1,3-dimethyl-2,4,7-trioxo-1,2,3,4,7,8-hexahydropyrido[2,3-d]pyrimidine-5-carbohydrazide]	180	1.1	> 200	231 °C (dec.)		
Cc1ccc(C=NNC(=O)c2cc(=O)[nH]c3c2c(=O)n(C)c(=O)n3C)cc1 [Compound 5j, 1,3-Dimethyl-N’-(4-methylbenzylidene)-2,4,7-trioxo-1,2,3,4,7,8-hexahydropyrido[2,3-d]pyrimidine-5-carbohydrazide]	90		> 200	284 °C (dec.)		
Cn1c(=O)c2c(C(=O)NN=Cc3cccc(Cl)c3)cc(=O)[nH]c2n(C)c1=O [Compound 5f, N’-(3-chlorobenzylidene)-1,3-dimethyl-2,4,7-trioxo-1,2,3,4,7,8-hexahydropyrido[2,3-d]pyrimidine-5-carbohydrazide]	120	3.75	> 200	302 °C (dec.)		
Cn1c(=O)c2c(C(=O)NN=Cc3ccc(F)cc3)cc(=O)[nH]c2n(C)c1=O				220.7 to 221.3 °C		
Cc1cccc(C=NNC(=O)c2cc(=O)[nH]c3c2c(=O)n(C)c(=O)n3C)c1 [Compound 5i, 1,3-Dimethyl-N’-(3-methylbenzylidene)-2,4,7-trioxo-1,2,3,4,7,8-hexahydropyrido[2,3-d]pyrimidine-5-carbohydrazide]	125	4.8	> 200	280 °C (dec.)		
Cn1c(=O)c2c(C(=O)NN=Cc3ccc(Cl)cc3)cc(=O)[nH]c2n(C)c1=O [Compound 5g, N’-(4-chlorobenzylidene)-1,3-dimethyl-2,4,7-trioxo-1,2,3,4,7,8-hexahydropyrido[2,3-d]pyrimidine-5-carbohydrazide]	110	4.5	> 200	305 °C (dec.)		
Cn1c(=O)c2c(C(=O)NN=Cc3ccccc3)cc(=O)[nH]c2n(C)c1=O [Compound 5a, N’-benzylidene-1,3-dimethyl-2,4,7-trioxo-1,2,3,4,7,8-hexahydropyrido[2,3-d]pyrimidine-5-carbohydrazide]	> 200	1.2	> 200	286 °C (dec.)		
Cc1cn([C@H]2C[C@H](N=[N+]=[N-])[C@@H](CO)O2)c(=O)[nH]c1=O [AZT, reference compound]					0.018	> 200
COc1ccc(C=NNC(=O)c2cc(=O)[nH]c3c2c(=O)n(C)c(=O)n3C)cc1 [Compound 5d, N’-(4-methoxybenzylidene)-1,3-dimethyl-2,4,7-trioxo-1,2,3,4,7,8-hexahydropyrido[2,3-d]pyrimidine-5-carbohydrazide]	140	1.3	185	231 °C (dec.)		
Cn1c(=O)c2c(C(=O)NN=Cc3ccccc3Cl)cc(=O)[nH]c2n(C)c1=O [Compound 5e, N’-(2-chlorobenzylidene)-1,3-dimethyl-2,4,7-trioxo-1,2,3,4,7,8-hexahydropyrido[2,3-d]pyrimidine-5-carbohydrazide]	155	2.4	> 200	297 °C (dec.)		
COc1ccccc1C=NNC(=O)c1cc(=O)[nH]c2c1c(=O)n(C)c(=O)n2C [Compound 5b, N’-(2-methoxybenzylidene)-1,3-dimethyl-2,4,7-trioxo-1,2,3,4,7,8-hexahydropyrido[2,3-d]pyrimidine-5-carbohydrazide]	120	3.75	> 200	231 °C (dec.)		
Cc1ccccc1C=NNC(=O)c1cc(=O)[nH]c2c1c(=O)n(C)c(=O)n2C				277 °C (dec.)		
